Data on three molecules can be found in article PMC5131915, “Platinum(II) Iodido Complexes of 7-Azaindoles with Significant Antiproliferative Effects: An Old Story Revisited with Unexpected Outcomes” (PLoS ONE, 2016).

The subject of data set [1] is A2780 cells. As to the kind of experiment: Cellular accumulation of platinum (ICP-MS). The settings on record: 24 h treatment at IC50 concentration. It is filed as cell-based, human. On the procedure:
The A2780 cells were seeded in 6-well culture plates (1×10^6 cells per well) and incubated overnight (37°C and 5% CO2 in a humidified incubator). […] The cells were washed with PBS (2 × 2 mL) after 24 h treatment, harvested by trypsin treatment, collected and centrifuged in PBS. The supernatants were discarded after centrifugation and pellets were digested in 500 μL of nitric acid (3 min at 150°C) using a microwave system Monowave300 (Anton Paar). Solutions were diluted with 4.5 mL of water and the platinum content was determined by ICP-MS. The obtained values were corrected for adsorption effects. The experiments were conducted in triplicate and the results are presented as arithmetic mean±SD.

Data set [2] deals with A2780 ovarian carcinoma cells. Nature of the data set: In vitro cytotoxicity testing (MTT assay), A2780. It is filed as cell-based, human. On the procedure: (§1) All cell lines were grown as adherent monolayers at 37°C and 5% CO2 in a humidified atmosphere.
(§2) The MTT assay was used to determine the cell viability; MTT = 3-(4,5-dimethylthiazol-2-yl)-2,5-diphenyltetrazolium bromide. A concentration of the formed dye was evaluated spectrophotometrically at 540 nm (TECAN, Schoeller Instruments LLC).
(§3) The data were expressed as the percentage of viability, where 100% and 0% represents the treatments with negative and positive controls, respectively. The data from the cancer cells were acquired from three independent experiments (conducted in triplicate) using cells from different passages. The resulting IC50 values (μM) were calculated from viability curves and the results are presented as arithmetic mean±SD.
(In general: Formazan colour is commonly taken as a measure of viable cells.)

Another data set relates to MCL-1L (37 kDa). Nature of the data set: Ex vivo Western blot of tumour tissues, MCL-1L. The settings on record: pooled tumour samples. It is filed as in vivo, mice. Here is the method: (§4) Frozen tumour samples were homogenized by a bench blender IKA DI25 (IKA-Werke, Germany) in the presence of a lysis buffer [cOmplete Protease Inhibitor Cocktail (Roche, Germany), 50 mM Tris-HCl pH 7.5, 1 mM EGTA, 1 mM EDTA, 1 mM sodium orthovanadate, 50 mM sodium fluoride, 5 mM sodium pyrophosphate, 270 mM sucrose, 0.5% (v/v) Triton X-100]. Subsequently, the blended samples were centrifuged at 9.000 g at 4°C for 15 min. The supernatants were collected and the protein concentration was measured by the Brandford’s method using the Brandford reagent (Amresco, USA) according to the manufacturer’s manual. The measured samples were stored at -80°C for the following experiments.
(§5) The expression of caspase 3, MCL-1, p53, and β-actin as loading control were evaluated by Western blot analysis and immunodetection. Lysates were mixed with a denaturing loading dye [250 mM Tris-HCl pH 6.8, 5% (v/v) β-mercaptoethanol, 10% (w/v) sodium dodecyl sulfate, 30% (v/v) glycerol, 0.04% (w/v) bromophenol blue], heated for 5 min at 70°C. To eliminate intra-species variability, and to obtain the same amount of proteins from all experimental groups, all samples from one group of animals were pooled together and loaded onto a 15% polyacrylamide denaturing gel. The final protein amount was 50 μg per well. After protein separation in the gel, they were transferred on the Immun-Blot polyvinylidene difluoride membrane 0.2 μm (Bio-Rad, USA). Then, the membrane was blocked by 5% (w/v) BSA in TBST [10 mM Tris-HCl pH 7.5, 150 mM NaCl, 0.1% (v/v) Tween-20]. […] HRP was detected by Clarity Western ECL Substrate (Bio-Rad, USA) using chemiluminescent documentation system Syngene PXi-4 (UK).
For orientation: Immunoblotting shows a protein as a band on a membrane.

The nature of data set [3]: Hydrolytic stability by 1H NMR. The settings on record: 20% DMF-d7/80% D2O, after 48 h. In kind it is physicochemical.
The subject of the next data set is p53. As to the kind of experiment: Ex vivo Western blot of tumour tissues, p53. It is filed as in vivo, mice. Particulars: pooled tumour samples. Here is the method: as §4, §5
Data set [4] concerns A2780 cells. Nature of the data set: Cell cycle analysis (PI/RNase, flow cytometry), A2780. In kind it is cell-based, human. The settings on record: A2780, 24 h, IC50 concentration. (Flow cytometry measures light scatter and fluorescence of single cells or particles in a stream.)
Protocol: The A2780 and MCF7 cells (1.0 × 10^6 per well) were pre-incubated in a six-well plate for 24 h as described above. […] After 24 h, floating cells were collected and attached cells were harvested using trypsin/EDTA in PBS. Total cells were washed twice with PBS and fixed in 70% ethanol. Cells were re-suspended in PBS and DNA staining was achieved by a solution of propidium iodide (PI) supplemented with RNase A (30 min, 25°C, in the dark). […] The data were analysed using CytExpert™ software (Beckman Coulter).
For data set [5], the system named is Caco-2 colorectal carcinoma cells. Nature of the data set: In vitro cytotoxicity testing (MTT assay), Caco-2. In kind it is cell-based, human. Particulars: for IC50: 24 h drug exposure, no recovery, MTT, read-out: IC50±SD, Caco-2; for selectivity factor IC50(Hep)/IC50(cancer cell line): Caco-2. On the procedure: as §1, §2, §3
For another data set, the system named is pUC19 plasmid dsDNA. Nature of the data set: Gel electrophoresis studies of interaction with pUC19 plasmid dsDNA. Details: species or system Escherichia coli. The settings on record: 37°C, 24 h; for effect on electrophoretic mobility of pUC19 forms (SC, OC, L): 0.23-2.30 μM. On the procedure:
Supercoiled pUC19 plasmid dsDNA (2686 bp, 1750 kDa) was isolated from Escherichia coli TOP10F’ by QIAprep Spin Miniprep Kit (Qiagen, Germany). The concentration and purity of the isolated plasmid DNA were evaluated spectrophotometrically. Plasmid was dissolved in nuclease-free water and stored at –20°C.
2 μL of these solutions were added to 18 μL of the pUC19 plasmid DNA water solution (300 ng per reaction, corresponding to a concentration of 23 μM calculated for the base pairs) and the mixture was left to react in the final 10% DMF/90% water solution containing the final concentrations of the complexes of 2.30, 1.15 and 0.23 μM, corresponding to 0.10, 0.05 and 0.01 metal-to-base pair stoichiometry. In parallel, the experiment was performed on plasmid DNA in the 10% DMF/90% water solution and in water. The reaction mixtures were incubated at 37°C for 24 h. An electrophoretic mobility was evaluated by gel electrophoresis ([…], 3 h) performed on a 0.8% (w/v) agarose gel containing EtBr (2.0 mg/L (w/v)) at ambient temperature in Tris-acetate/EDTA buffer. The bands on the obtained electrophoretogram were detected by an MUV21-CP-02 gel scanner (Major Science) and analysed with AlphaEaseFC software (version 4.0.0.34, Alpha Innotech) in order to evaluate the relative percentages of the SC, OC and L forms. Each experiment was performed in triplicate.

Data set [6] concerns cisplatin-sensitive HCT116 colon cancer cell line. Details: method as in PMID 26226326. Particulars: cited from earlier work.
The subject of data set [7] is cisplatin-resistant HCT116 colon cancer cell line. Details: method as in PMID 26226326. Particulars: cited from earlier work.
The mark [8] stands for this setting: 24 h drug exposure, no recovery, MTT, read-out: IC50±SD, A2780.

As a reminder, the IC50 is the midpoint of a concentration-inhibition curve.

Read-outs that look alike come from different tables or passages of the source.

On to `Brc1cc[n+]([Pt-2]([I])([I])[n+]2ccc(Br)c3cc[nH]c32)c2[nH]ccc12` [Complex 6, cis-[Pt(4Braza)2I2]], for which, in the data set with A2780 cells [1], the cellular accumulation amounted to 598±97 pmol Pt/10^6 A2780 cells. For the same molecule, the IC50 in data set [2] (6 h exposure, read-out: IC50, A2780, time-dependent cytotoxicity) is 8.2 ± 0.5 µM. Besides, the IC50 in data set [2] (setting [8]) came out at 3.2 ± 0.2 µM. The half-inhibitory concentration (IC50) in data set [2] (48 h exposure, read-out: IC50, A2780, time-dependent cytotoxicity) was determined as 0.4 ± 0.1 µM. In the data set on MCL-1L (37 kDa), the “MCL-1L level in tumour tissue” value is reported as “negligible effect”. Further, the “fraction of complex hydrolyzed” value in data set [3] is given as ~10%. Moreover, the “p53 level in tumour tissue” value in the data set with p53 is given as “did not affect”. Besides, in the data set on A2780 cells [4], the G0/G1 population came out at 51.5±3.2%, the G2/M population is on record as 26.3±1.6%, the S population is on record as 17.5±0.9% and the sub-G1 population stood at 4.3±1.4%. Moreover, in data set [5], the IC50 was found to be 0.4 ± 0.3 µM and the “selectivity factor IC50(Hep)/IC50(cancer cell line)” value is listed as ~10. For the same molecule, the “effect on electrophoretic mobility of pUC19 forms (SC, OC, L)” value (from here on “effect on electrophoretic mobility”) in the data set on pUC19 plasmid dsDNA is on record as “did not significantly change the mobility”.

Consider `Cc1cc2c(Cl)cc[n+]([Pt-2]([I])([I])[n+]3ccc(Cl)c4cc(C)[nH]c43)c2[nH]1` [Complex 8, cis-[PtI2(2Me4Claza)2]], for which the concentration for half-maximal inhibition (IC50) in data set [2] (setting [8]) came out at 1.7 ± 0.3 µM. In the data set with MCL-1L (37 kDa), the “MCL-1L level in tumour tissue” value was “considerably increased”. Further, the “p53 level in tumour tissue” value in the data set with p53 is given as “attenuated”. Also, in the data set on A2780 cells [4], the G0/G1 population was determined as 55.2±2.2%, the G2/M population came to 23.9±2.3%, the S population came out at 18.3±1.3% and the sub-G1 population is on record as 2.2±0.4%. In data set [5], the half-inhibitory concentration (IC50) stood at 0.4 ± 0.2 µM and the “selectivity factor IC50(Hep)/IC50(cancer cell line)” value is listed as ~24. The “effect on electrophoretic mobility” value in the data set with pUC19 plasmid dsDNA is given as “did not significantly change the mobility”. The “amount of damaged OC and linear (L) forms of pUC19 DNA” value in the data set with pUC19 plasmid dsDNA (concentration-dependent) was “visibly increased”.

The molecule `N.N.[Cl][Pt][Cl]` [Cisplatin, cisplatin, reference compound] displayed a cellular accumulation with A2780 cells [1] of 535±16 pmol Pt/10^6 A2780 cells. Further, the IC50 in [6] is 7.6 µM. Also, in the data set on A2780 cells [4], the G0/G1 population is recorded as 23.7±1.5%, the G2/M population is 23.0±2.2%, the S population was determined as 50.6±2.8% and the sub-G1 population worked out at 2.0±0.2%. Also, the “effect on electrophoretic mobility” value with pUC19 plasmid dsDNA is on record as “increase the electrophoretic mobility”. The IC50 in [7] is 22 µM.
